Results published in US8716437B2 (priority 2007, dated 2014).

What was measured:
Kv1.1 = biological target: T1, Kv1.1 (Rattus norvegicus, UniProt P10499); assay: Two electrode voltage clamp, Xenopus oocytes, Kv1.1; assay type: cell-based
T1 construct: expressed in transfected cells; host or cells: Xenopus laevis oocytes (cRNA injection)
Description: (§1) To examine the effect of mokatoxin-1 on activity of potassium ion channels, cDNA encoding Rattus Kv1.1 (NCBI accession number NM_173095), Rattus Kv1.2 (NM_012970), Homo Kv1.3 (NM_002232), or Mus BK (NM_010610) were subcloned into oocyte expression vectors based on PCR3.1 and pGEM. cRNA synthesis was performed with T7 polymerase and the mMessageMachine Kit (Ambion, Austin, Tex.) according to manufacturers instructions. cRNA concentrations were determined spectroscopically. For two electrode voltage clamp recordings oocytes were extracted from Xenopus laevis and defoliculated with Collagenase Type 2 (Worthington, Lakewood, N.J.). Oocytes were maintained in ND91 solution containing 2 mM KCl, 91 mM NaCl, 1 mM MgCl2, 1.8 mM CaCl2, and 5 mM HEPES, pH 7.5, supplemented with 1% Penicillin/Streptomycin (Cellgro, Hemdon, Va.) and 0.1% Gentamycin sulfate (Gibco, Grand Island, N.Y.)) at 16° C. Stage V and VI oocytes were injected with 8 pg to 4 ng cRNA, and currents recorded 1 to 4 days later.
(§2) For dose-response measurements of toxin block of Kv1.1, Kv1,2, or Kv1.3 peak currents were recorded during a 500 ms step to 0 mV from a holding voltage of −100 mV, followed by a 200 ms step to −135 mV every 30 s. To determine the kinetics of toxin block oocytes were held at −100 mV and stepped to the test voltage of 0 mV for 100 ms followed by a 200 ms duration step to −135 mV every 2 s. BK currents were recorded during a 50 ms step to +60 mV from a holding voltage of −80 mV, followed by a 40 ms step to −100 mV every 3 s. The perfusion solution contained 2 mM KCl, 96 mM NaCl, 1 mM MgCl2, 1.8 mM CaCl2, 5 mM HEPES, pH 7.5 and 0.1% fatty acid ultra-free BSA fraction V (Roche Diagnostics Corporation, Indianapolis, Ind.). Data acquisition and processing was performed with an oocyte clamp OC-725B (Warner Instruments Corporation, Hamden, Conn.), pCLAMP (Axon, Sunnyvale, Calif.), IGOR Pro (WaveMetrics, Lake Oswego, Oreg.), and Origin6.1 (OriginLab Corporation, Northampton, Mass.) softwares. The equilibrium dissociation rates (KD) for block of Kv1.1, Kv1.2, and Kv1.3 by mokatoxin-1 were determined by fitting the dose-response data and kon and koff were calculated as described by Goldstein and Miller, 1993 (Biophys J. 1993 65 (4):1613-1619).

guinea pig ileum [1] = assay: Spontaneous motility (twitches) of guinea pig ileum strips; conditions: reference toxins 10 nM; mokatoxin-1 1-100 nM
KcsA-1.3 = assay: Phage ELISA on immobilized KcsA-1.3; assay type: binding; conditions: in words
Description: Panning was performed, in triplicate, on surfaces without a coating (none), and on immobilized KcsA-Kv1.3 receptors (KcsA-Kv1.3), wild-type KcsA receptors (KcsA-WT), and antiserum to sarafotoxin S6b (anti-S6b). The input ligands per well are 10^9, 10^8, 10^7. The ligands included: sarafotoxin S6b (upper panel FIG. 4), kaliotoxin-1 (KTX, middle row FIG. 4), no ligand helper phages (bottom row FIG. 4).
For each binding determination, 3 wells in a NUNC-Immuno MaxiSorp 96-Well plates were coated overnight at 4° C. with 1 ug of KcsA-1.3 or KcsA in 50 ul of 100 mM NaHCO3, 1 mM DDM, pH 9, then washed once with Tris-HC150 mM, NaCl-150 mM pH7.5 containing 0.1% Tween 20, 1 mM DDM (TBST). Wells were then blocked at room temperature with 200 ul of Tris 50 mM NaCl 150 mM pH 7.5, 1 mM DDM, (TBS) containing 0.5% BSA, then washed once with TBST. For each well, 108-1010 phages were added in 50 ul of TBS containing 0.5% BSA and incubated on a rotary shaker at room temperature for 2 hrs. Following five washes with TBST, 50 ul of anti-phage antibody-peroxidase conjugated TBST with 0.5% BSA was added and incubated on a rotary shaker for 2 hours at room temperature, then washed 5 times with TBST and twice with TBS. Fifty (50) ul of 1 step turbo-TMB-ELISA was added and the reaction is stopped by 50 μl of 2M H2SO4 and the absorbancy was read at 450 nm.

KcsA-Kv1.3 = assay: Phage panning on purified immobilized KcsA-Kv1.3 (KcsA-1.3); assay type: binding; conditions: mixture of five ligands
Kv1.3 = Kv1.3 (Homo sapiens, UniProt P22001); assay: Two electrode voltage clamp, Xenopus oocytes, Kv1.3; assay type: cell-based; set-up: expressed in transfected cells; host or cells: Xenopus laevis oocytes (cRNA injection)
From the text: Thereafter, MK-1 was synthesized. […] The blocking of […] by MK-1 is represented by filled circles; the blocking of Kv1.2 by MK-1 is represented by filled diamonds; and the blocking of Kv1.1 by MK-1 is represented by filled triangles.
as §1, §2

Kv1.2 = biological target: T2, Kv1.2 (Rattus norvegicus, UniProt P63142); assay: Two electrode voltage clamp, Xenopus oocytes, Kv1.2; assay type: cell-based
T2 construct: expressed in transfected cells; host or cells: Xenopus laevis oocytes (cRNA injection)
Description: as §1, §2

guinea pig ileum [2] = conditions: J Pharmacol Exp Ther. 1999; cited from earlier work

T2 sequence (P63142 whole entry): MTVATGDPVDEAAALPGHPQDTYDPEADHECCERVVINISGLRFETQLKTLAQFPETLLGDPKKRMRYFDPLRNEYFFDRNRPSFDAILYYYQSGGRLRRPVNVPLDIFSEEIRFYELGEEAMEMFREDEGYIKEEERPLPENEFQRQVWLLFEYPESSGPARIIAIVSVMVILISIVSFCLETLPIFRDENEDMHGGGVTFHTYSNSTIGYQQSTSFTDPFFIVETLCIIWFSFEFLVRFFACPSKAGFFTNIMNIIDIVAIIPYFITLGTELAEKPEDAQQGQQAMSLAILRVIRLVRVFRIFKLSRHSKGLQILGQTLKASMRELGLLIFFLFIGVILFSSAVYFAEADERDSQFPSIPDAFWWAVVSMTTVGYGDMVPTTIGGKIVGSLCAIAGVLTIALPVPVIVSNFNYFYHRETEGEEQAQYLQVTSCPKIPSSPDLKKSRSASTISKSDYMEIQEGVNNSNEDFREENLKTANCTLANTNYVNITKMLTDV
T1 sequence (P10499 whole entry): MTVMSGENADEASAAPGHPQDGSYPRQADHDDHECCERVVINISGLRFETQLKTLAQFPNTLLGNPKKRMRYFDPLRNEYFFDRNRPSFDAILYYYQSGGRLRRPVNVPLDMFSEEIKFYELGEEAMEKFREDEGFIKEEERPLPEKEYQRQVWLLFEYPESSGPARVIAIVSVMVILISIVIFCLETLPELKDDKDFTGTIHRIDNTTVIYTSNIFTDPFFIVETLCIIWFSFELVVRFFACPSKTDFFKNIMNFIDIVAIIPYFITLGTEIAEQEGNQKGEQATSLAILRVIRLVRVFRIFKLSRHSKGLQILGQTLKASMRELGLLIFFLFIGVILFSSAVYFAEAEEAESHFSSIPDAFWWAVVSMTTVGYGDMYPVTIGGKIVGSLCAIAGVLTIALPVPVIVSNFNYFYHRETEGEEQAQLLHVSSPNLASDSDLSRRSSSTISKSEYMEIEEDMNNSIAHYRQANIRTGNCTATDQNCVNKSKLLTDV
Sequence of Kv1.3 (P22001 whole entry): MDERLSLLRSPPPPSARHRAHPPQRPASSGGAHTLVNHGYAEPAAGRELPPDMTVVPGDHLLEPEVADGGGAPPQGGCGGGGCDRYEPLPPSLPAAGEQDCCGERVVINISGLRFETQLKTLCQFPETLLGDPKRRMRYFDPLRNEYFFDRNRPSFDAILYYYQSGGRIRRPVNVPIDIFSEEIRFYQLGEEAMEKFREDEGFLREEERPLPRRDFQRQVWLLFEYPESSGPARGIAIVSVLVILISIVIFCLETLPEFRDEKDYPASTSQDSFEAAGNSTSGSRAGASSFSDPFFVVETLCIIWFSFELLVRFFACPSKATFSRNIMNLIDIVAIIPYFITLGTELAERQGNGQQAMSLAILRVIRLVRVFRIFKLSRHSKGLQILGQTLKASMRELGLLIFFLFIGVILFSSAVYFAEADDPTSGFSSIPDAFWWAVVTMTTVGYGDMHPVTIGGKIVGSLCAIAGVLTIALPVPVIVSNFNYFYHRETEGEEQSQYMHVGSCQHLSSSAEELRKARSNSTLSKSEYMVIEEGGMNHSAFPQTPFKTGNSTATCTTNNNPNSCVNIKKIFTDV

## CC[C@H](C)[C@H](NC(=O)[C@H](CCC(=O)O)NC(=O)[C@@H](NC(=O)CN)C(C)C)C(=O)N[C@@H](CC(N)=O)C(=O)N[C@H](C(=O)N[C@@H](CCCCN)C(=O)N[C@H]1CSSC[C@@H]2NC(=O)[C@H](CCCCN)NC(=O)CNC(=O)[C@H](Cc3ccccc3)NC(=O)[C@H](CCCNC(=N)N)NC(=O)[C@H](CCSC)NC(=O)CNC(=O)[C@H](C)NC(=O)[C@H](CC(=O)O)NC(=O)[C@H](CCCCN)NC(=O)[C@@H]3CSSC[C@@H](C(=O)N[C@H](C(=O)N4CCC[C@H]4C(=O)N[C@@H](CCCCN)C(=O)O)[C@@H](C)O)NC(=O)[C@H](Cc4c[nH]cn4)NC(=O)[C@H](CSSC[C@H](NC(=O)[C@H](CCC(N)=O)NC(=O)[C@@H]4CCCN4C(=O)[C@H](CO)NC(=O)CNC(=O)[C@H](CO)NC1=O)C(=O)N[C@@H](CC(C)C)C(=O)N[C@@H](CCCCN)C(=O)N1CCC[C@H]1C(=O)N3)NC(=O)[C@H](CCCCN)NC(=O)[C@H](CCCNC(=N)N)NC(=O)[C@H](CC(N)=O)NC(=O)[C@H](CCSC)NC2=O)C(C)C [KTX, kaliotoxin-1]
Kv1.1
  IC50: 0.1 nM
Kv1.1; rKv1.1
  Koff [s]^−1: 0.009 ± 0.002 [s]^−1
  Kon [M · s]^−1: 30 · 10^6 ± 16 · 10^6 [M · s]^−1
Guinea pig ileum [1]
  induction of twitches in ileum strips: induced twitches
KcsA-1.3
  binding of phage to KcsA-1.3 (KcsA-Kv1.3): specific binding
KcsA-Kv1.3
  enrichment after one round of panning: 3.6 fold
KcsA-Kv1.3; one round of panning
  Output (% Ligands) KcsA-Kv.13 (n = 20): 100%
Kv1.3
  IC50: 0.5 nM
Kv1.3; hKv1.3
  Koff [s]^−1: 0.0070 ± 0.0009 [s]^−1
  Kon [M · s]^−1: 8 · 10^8 ± 1 · 10^8 [M · s]^−1
Kv1.2
  IC50: 1.4 nM
Kv1.2; rKv1.2
  Koff [s]^−1: 0.21 ± 0.01 [s]^−1
  Kon [M · s]^−1: 13 · 10^6 ± 3 · 10^6 [M · s]^−1
Guinea pig ileum [2]
  ileum contractions: contractions
